For 11 compounds, IC50 results are on record in patent US6410553B1, “Benzosulfones and related compositions and methods” (Ortho-McNeil Pharmaceutical, Inc., priority 2000, dated 2002).

T1 sequence (P15381 whole entry, other chains not shown): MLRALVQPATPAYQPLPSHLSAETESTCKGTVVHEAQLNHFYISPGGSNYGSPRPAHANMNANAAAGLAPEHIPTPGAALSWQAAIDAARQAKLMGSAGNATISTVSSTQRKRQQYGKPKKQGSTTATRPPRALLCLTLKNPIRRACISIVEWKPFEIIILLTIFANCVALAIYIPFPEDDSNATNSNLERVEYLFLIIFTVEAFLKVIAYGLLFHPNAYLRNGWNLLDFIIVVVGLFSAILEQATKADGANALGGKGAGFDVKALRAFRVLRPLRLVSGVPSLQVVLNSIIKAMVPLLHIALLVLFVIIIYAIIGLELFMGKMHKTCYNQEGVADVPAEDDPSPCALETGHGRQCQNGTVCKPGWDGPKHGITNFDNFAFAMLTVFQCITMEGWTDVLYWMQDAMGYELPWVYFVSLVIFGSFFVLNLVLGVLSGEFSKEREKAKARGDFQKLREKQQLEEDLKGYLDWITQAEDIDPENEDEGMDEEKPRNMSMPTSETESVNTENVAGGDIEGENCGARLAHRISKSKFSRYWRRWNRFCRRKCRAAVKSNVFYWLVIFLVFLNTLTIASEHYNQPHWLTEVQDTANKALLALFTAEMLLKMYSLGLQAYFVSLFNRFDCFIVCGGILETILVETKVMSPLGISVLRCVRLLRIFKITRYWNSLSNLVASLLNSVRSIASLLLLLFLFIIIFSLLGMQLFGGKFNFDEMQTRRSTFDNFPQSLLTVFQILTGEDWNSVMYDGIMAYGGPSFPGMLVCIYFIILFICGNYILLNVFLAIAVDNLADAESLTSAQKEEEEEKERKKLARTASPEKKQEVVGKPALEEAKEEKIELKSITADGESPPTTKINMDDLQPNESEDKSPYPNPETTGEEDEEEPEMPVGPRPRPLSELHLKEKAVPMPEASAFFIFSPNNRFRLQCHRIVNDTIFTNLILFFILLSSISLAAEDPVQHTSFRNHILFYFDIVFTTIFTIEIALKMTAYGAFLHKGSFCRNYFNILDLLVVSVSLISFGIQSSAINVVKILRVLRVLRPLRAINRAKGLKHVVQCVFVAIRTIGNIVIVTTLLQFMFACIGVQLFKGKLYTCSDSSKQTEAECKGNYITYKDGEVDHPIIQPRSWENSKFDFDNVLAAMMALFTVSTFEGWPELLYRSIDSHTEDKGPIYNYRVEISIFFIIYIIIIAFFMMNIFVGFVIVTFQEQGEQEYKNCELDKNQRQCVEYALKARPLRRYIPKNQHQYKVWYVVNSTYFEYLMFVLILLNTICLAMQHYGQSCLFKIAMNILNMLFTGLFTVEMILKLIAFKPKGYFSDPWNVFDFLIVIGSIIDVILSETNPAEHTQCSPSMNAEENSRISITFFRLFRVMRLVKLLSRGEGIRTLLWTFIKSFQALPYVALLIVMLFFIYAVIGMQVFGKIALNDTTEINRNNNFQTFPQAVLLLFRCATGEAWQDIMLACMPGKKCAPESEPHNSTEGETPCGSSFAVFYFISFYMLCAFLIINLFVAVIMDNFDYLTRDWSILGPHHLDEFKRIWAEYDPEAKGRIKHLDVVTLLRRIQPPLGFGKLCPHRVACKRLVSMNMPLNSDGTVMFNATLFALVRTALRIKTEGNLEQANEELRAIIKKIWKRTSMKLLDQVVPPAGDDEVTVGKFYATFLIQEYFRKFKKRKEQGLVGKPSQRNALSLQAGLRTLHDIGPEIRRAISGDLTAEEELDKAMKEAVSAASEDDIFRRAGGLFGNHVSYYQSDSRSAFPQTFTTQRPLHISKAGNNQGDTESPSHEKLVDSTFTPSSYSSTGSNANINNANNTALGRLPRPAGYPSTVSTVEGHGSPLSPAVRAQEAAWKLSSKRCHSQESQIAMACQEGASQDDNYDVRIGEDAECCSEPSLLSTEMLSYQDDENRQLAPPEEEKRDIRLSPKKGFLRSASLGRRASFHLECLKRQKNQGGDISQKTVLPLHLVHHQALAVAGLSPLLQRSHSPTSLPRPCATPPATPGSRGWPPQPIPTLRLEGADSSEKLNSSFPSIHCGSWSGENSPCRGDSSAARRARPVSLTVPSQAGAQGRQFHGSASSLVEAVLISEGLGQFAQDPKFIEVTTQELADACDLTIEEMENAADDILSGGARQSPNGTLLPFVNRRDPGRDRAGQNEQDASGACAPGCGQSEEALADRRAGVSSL
T1 sequence (P13806 27-960 partner limits assumed, other chains not shown): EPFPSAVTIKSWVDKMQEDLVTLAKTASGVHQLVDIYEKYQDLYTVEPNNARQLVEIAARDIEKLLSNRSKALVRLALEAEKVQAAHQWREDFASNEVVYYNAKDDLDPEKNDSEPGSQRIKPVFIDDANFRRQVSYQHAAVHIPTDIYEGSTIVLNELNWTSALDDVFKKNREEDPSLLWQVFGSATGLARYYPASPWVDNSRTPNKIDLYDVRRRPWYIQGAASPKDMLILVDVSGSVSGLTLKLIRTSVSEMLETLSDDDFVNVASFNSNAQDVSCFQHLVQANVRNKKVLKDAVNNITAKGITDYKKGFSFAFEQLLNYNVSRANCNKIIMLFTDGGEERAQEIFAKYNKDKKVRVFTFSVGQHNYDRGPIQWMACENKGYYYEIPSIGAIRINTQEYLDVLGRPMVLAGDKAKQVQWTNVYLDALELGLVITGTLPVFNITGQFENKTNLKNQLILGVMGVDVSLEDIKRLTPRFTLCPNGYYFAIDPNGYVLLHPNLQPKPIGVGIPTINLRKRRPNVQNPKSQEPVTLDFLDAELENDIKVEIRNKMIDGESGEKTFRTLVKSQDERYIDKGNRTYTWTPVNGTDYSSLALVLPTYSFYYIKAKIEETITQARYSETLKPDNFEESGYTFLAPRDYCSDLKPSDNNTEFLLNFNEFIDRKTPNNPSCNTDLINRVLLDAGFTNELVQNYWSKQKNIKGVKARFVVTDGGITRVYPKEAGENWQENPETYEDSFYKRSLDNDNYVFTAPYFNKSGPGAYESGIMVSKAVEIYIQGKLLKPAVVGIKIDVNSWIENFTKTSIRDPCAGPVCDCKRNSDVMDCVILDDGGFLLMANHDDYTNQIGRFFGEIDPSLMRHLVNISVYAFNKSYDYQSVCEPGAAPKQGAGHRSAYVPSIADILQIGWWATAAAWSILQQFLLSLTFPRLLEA
T1 sequence (P13806 961-1106 partner limits assumed, other chains not shown): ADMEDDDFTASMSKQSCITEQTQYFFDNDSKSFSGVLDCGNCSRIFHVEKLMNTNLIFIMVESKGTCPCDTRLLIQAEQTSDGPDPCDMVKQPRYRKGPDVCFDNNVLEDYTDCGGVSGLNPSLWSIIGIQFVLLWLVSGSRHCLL

This test addresses T1, calcium channel (3H-nitrendipine binding, rabbit heart membranes) (Oryctolagus cuniculus, UniProt P15381).
T1 construct: from tissue; host or cells: rabbit heart (crude membrane pellet)
In words: Assay for Inhibition of Nitrendipine Binding. As to conditions: 3H-nitrendipine (0.05-0.50 nM), 90 minutes at 4° C. The procedure: Assay for Inhibition of Nitrendipine Binding
Female, New Zealand white rabbits (1-2 kg) are sacrificed by cervical dislocation, and the heart is immediately removed, cleaned and chopped into small pieces. The tissue is homogenized in 5×times volume of 0.05M Hepes buffer, pH 7.4. The homogenate is centrifuged at 4000 g for 10 minutes, and the supernatant is re-centrifuged at 42,000×g for 90 minutes. The resulting membrane pellet is resuspended (0.7 ml/g weight) in 0.05M Hepes, pH 7.4 and stored at […] until used. Each tube of the binding assay contains ^3H-nitrendipine (0.05-0.50 nM), buffer, membranes (0.10 ml), and test compound in a total volume of 1.0 ml. After 90 minutes at 4° C., the bound nitrendipine is separated from the unbound by filtration on Whatman GF/C filters. After rinsing, the filters are dried and counted in a liquid scintillation counter.
Non-specific binding of ^3H-nitrendipine (that amount bound in the presence of excess unlabelled nitrendipine) is subtracted from the total bound to obtain specifically bound radiolabeled nitrendipine. The amount of specifically bound nitrendipine in the presence of a test compound is compared to that amount bound in the absence of a compound. A percent displacement (or inhibition) can then be calculated.
Take `COC(=O)C1=C(C)NC2=C(C1c1cccc(Cl)c1Cl)S(=O)(=O)CCc1ccccc12` (centres unmarked) [Compound 3, [3]Benzothiepino[1,2-b]pyridine-3-carboxylic acid, 4-(2,3-dichlorophenyl)-1,4,6,7-tetrahydro-2-methyl-, methyl ester, 5,5-dioxide]: the IC50 was determined as 0.038 µM.

As for `COC(=O)C1=C(C)NC2=C(C1c1cccc(Cl)c1)S(=O)(=O)CCc1ccccc12` (centres unmarked) [Compound 6, [3]Benzothiepino[1,2-b]pyridine-3-carboxylic acid, 4-(3-chlorophenyl)-1,4,6,7-tetrahydro-2-methyl-, methyl ester, 5,5-dioxide], the IC50 was 0.337 µM.

For the compound `COC(=O)C1=C(C)NC2=C(C1c1cccc([N+](=O)[O-])c1)S(=O)(=O)CCc1ccccc12` (centres unmarked) [Compound 8, [3]Benzothiepino[1,2-b]pyridine-3-carboxylic acid, 1,4,6,7-tetrahydro-2-methyl-4-(3-nitrophenyl)-, methyl ester, 5,5-dioxide], the IC50 came out at 0.261 µM.

Take `COC(=O)C1=C(C)NC2=C(C1c1c(O)cccc1Cl)S(=O)(=O)CCc1ccccc12` (centres unmarked) [Compound 9, [3]Benzothiepino[1,2-b]pyridine-3-carboxylic acid, 4-(2-chloro-6-hydroxyphenyl)-1,4,6,7-tetrahydro-2-methyl-, methyl ester, 5,5-dioxide]: the IC50 is 1.3 µM.

Consider `COC(=O)C1=C(C)NC2=C(C1c1ccccc1[N+](=O)[O-])S(=O)(=O)CCc1ccccc12` (centres unmarked) [Compound 5, [3]Benzothiepino[1,2-b]pyridine-3-carboxylic acid, 1,4,6,7-tetrahydro-2-methyl-4-(2-nitrophenyl)-, methyl ester, 5,5-dioxide], for which the IC50 is 1.9 µM.

Turning to `COC(=O)C1=C(C)NC2=C(C1c1c(F)c(F)c(F)c(F)c1F)S(=O)(=O)CCc1ccccc12` (centres unmarked) [Compound 4, [3]Benzothiepino[1,2-b]pyridine-3-carboxylic acid, 1,4,6,7-tetrahydro-2-methyl-4-(pentafluorophenyl)-, methyl ester, 5,5-dioxide], the IC50 was determined as 0.261 µM.

In the case of `COC(=O)C1=C(C)NC2=C(C1c1ccccc1Cl)S(=O)(=O)CCc1ccccc12` (centres unmarked) [Compound 1, [3]Benzothiepino[1,2-b]pyridine-3-carboxylic acid, 4-(2-chlorophenyl)-1,4,6,7-tetrahydro-2-methyl-, methyl ester, 5,5-dioxide], the IC50 worked out at 0.612 µM.

Turning to `CC1=C(C(=O)OCCN(C)Cc2cccs2)C(c2ccccc2Cl)C2=C(N1)c1ccccc1CCS2(=O)=O` (centres unmarked) [Compound 10, [3]Benzothiepino[1,2-b]pyridine-3-carboxylic acid, 4-(2-chlorophenyl)-1,4,6,7-tetrahydro-2-methyl-, 2-[methyl(2-thienylmethyl)amino]ethyl ester, 5,5-dioxide], the IC50 is 0.099 µM.

Consider `CC1=C(C(=O)OCCN(C)Cc2cccs2)C(c2cccc(Cl)c2Cl)C2=C(N1)c1ccccc1CCS2(=O)=O` (centres unmarked) [Compound 7, [3]Benzothiepino[1,2-b]pyridine-3-carboxylic acid, 4-(2,3-dichlorophenyl)-1,4,6,7-tetrahydro-2-methyl-, 2-[methyl(2-thienylmethyl)amino]ethyl ester, 5,5-dioxide], for which the IC50 came to 0.038 µM.

As for `CC1=C(C(=O)OCCN(C)Cc2ccccc2)C(c2ccccc2Cl)C2=C(N1)c1ccccc1CCS2(=O)=O` (centres unmarked) [Compound 11, [3]Benzothiepino[1,2-b]pyridine-3-carboxylic acid, 4-(2-chlorophenyl)-1,4,6,7-tetrahydro-2-methyl-, 2-[methyl(phenylmethyl)amino]ethyl ester, 5,5-dioxide], the IC50 turned out to be 0.453 µM.

For the compound `CC1=C(C(=O)OCCN(C)Cc2ccccc2)C(c2cccc(Cl)c2Cl)C2=C(N1)c1ccccc1CCS2(=O)=O` (centres unmarked) [Compound 2, [3]Benzothiepino[1,2-b]pyridine-3-carboxylic acid, 4-(2,3-dichlorophenyl)-1,4,6,7-tetrahydro-2-methyl-, 2-[methyl(phenylmethyl)amino]ethyl ester, 5,5-dioxide], the IC50 turned out to be 0.118 µM.

The term IC50 denotes the concentration needed to halve the response being measured.
